In ChEMBL document CHEMBL1139071, “Diastereoselective synthesis of glycosylated prolines as alpha-glucosidase inhibitors and organocatalyst in asymmetric aldol reaction” (Bioorg Med Chem Lett, 2007):

Experiments:
Rattus norvegicus = species: Rattus norvegicus; assay: Inhibition of rat intestinal alpha-glucosidase at 100 uM
[1] = Inhibition of rat intestinal alpha-glucosidase

Question: For `CCOC(=O)[C@H]1[C@H](C2O[C@@H]3OC(C)(C)O[C@@H]3[C@H]2OCc2ccccc2)[C@@H](C(=O)O)N[C@H]1c1ccc(Br)cc1` (single isomer, unassigned), which inhibition (Rattus norvegicus) is on record?
Answer: Its inhibition is 8.1%.

Question: Which inhibition (Rattus norvegicus) does the source give for `CCOC(=O)[C@H]1[C@H](C2O[C@@H]3OC(C)(C)O[C@@H]3[C@H]2OCc2ccccc2)[C@@H](C(=O)OCC)N[C@H]1c1cccnc1` (single isomer, unassigned) here?
Answer: Its inhibition is 29.3%.

Question: For `CCOC(=O)[C@H]1[C@H](C2O[C@@H]3OC(C)(C)O[C@@H]3[C@H]2OCc2ccccc2)[C@@H](C(=O)OCC)N[C@H]1c1cc(Cl)ccc1Cl` (single isomer, unassigned), which IC50 [1] is on record?
Answer: The IC50 was 99 µM.

Question: And the Ki [1]?
Answer: Its Ki is 65 µM.

Question: And the inhibition (Rattus norvegicus)?
Answer: Its inhibition is 67.2%.

Question: With `CCOC(=O)[C@H]1[C@H](C2O[C@@H]3OC(C)(C)O[C@@H]3[C@H]2OCc2ccccc2)[C@@H](C(=O)O)N[C@H]1c1cccc([N+](=O)[O-])c1` (single isomer, unassigned) as the compound, how does the inhibition (Rattus norvegicus) read?
Answer: The inhibition was 10.3%.

Question: For `C[C@H]1O[C@H](O[C@H]2[C@H](O)[C@@H](O)[C@@H](O[C@H]3[C@H](O)[C@@H](O)C(O)O[C@@H]3CO)O[C@@H]2CO)[C@H](O)[C@@H](O)[C@@H]1N[C@H]1C=C(CO)[C@@H](O)[C@H](O)[C@H]1O` (stereo partly drawn), which inhibition (Rattus norvegicus) is on record?
Answer: Its inhibition is 39%.

Question: With `CCOC(=O)[C@H]1[C@H](C2O[C@@H]3OC(C)(C)O[C@@H]3[C@H]2OCc2ccccc2)[C@@H](C(=O)O)N[C@H]1c1cccc(Cl)c1` (single isomer, unassigned) as the compound, how does the inhibition (Rattus norvegicus) read?
Answer: The inhibition was 24.1%.

Question: Which inhibition (Rattus norvegicus) does the source give for `CCOC(=O)[C@H]1[C@H](C2O[C@@H]3OC(C)(C)O[C@@H]3[C@H]2OCc2ccccc2)[C@@H](C(=O)O)N[C@H]1c1cc(Cl)ccc1Cl` (single isomer, unassigned) here?
Answer: Its inhibition is 10.5%.

Question: With `CCOC(=O)[C@H]1[C@H](C2O[C@@H]3OC(C)(C)O[C@@H]3[C@H]2OCc2ccccc2)[C@@H](C(=O)O)N[C@H]1c1cccnc1` (single isomer, unassigned) as the compound, how does the inhibition (Rattus norvegicus) read?
Answer: Its inhibition is 5.1%.

Question: For `CCOC(=O)[C@H]1[C@H](C2O[C@@H]3OC(C)(C)O[C@@H]3[C@H]2OC)[C@@H](C(=O)OCC)N[C@H]1c1ccc(Br)cc1` (single isomer, unassigned), which inhibition (Rattus norvegicus) is on record?
Answer: Its inhibition is 26.8%.

Question: What does the source list for `CCOC(=O)[C@H]1[C@H](C2O[C@@H]3OC(C)(C)O[C@@H]3[C@H]2OCc2ccccc2)[C@@H](C(=O)OCC)N[C@H]1c1ccc(F)cc1` (single isomer, unassigned)?
Answer: IC50 [1]: 75 µM; Ki [1]: 40 µM; inhibition (Rattus norvegicus): 43.1%

Question: Which results are given for `CCOC(=O)[C@H]1[C@H](C2O[C@@H]3OC(C)(C)O[C@@H]3[C@H]2OCc2ccccc2)[C@@H](C(=O)OCC)N[C@H]1c1cccc(Cl)c1` (single isomer, unassigned)?
Answer: IC50 [1]: 96 µM; Ki [1]: 79 µM; inhibition (Rattus norvegicus): 65.5%

Question: For `CCOC(=O)[C@H]1[C@H](C2O[C@@H]3OC(C)(C)O[C@@H]3[C@H]2OCc2ccccc2)[C@@H](C(=O)OCC)N[C@H]1c1ccc(Br)cc1` (single isomer, unassigned), which IC50 [1] is on record?
Answer: Its IC50 is 64 µM.

Question: And the Ki [1]?
Answer: The Ki was 36 µM.

Question: What about the inhibition (Rattus norvegicus) of the same compound?
Answer: The inhibition was 79.3%.

Question: Which IC50 [1] does the source give for `CCOC(=O)[C@H]1[C@H]([C@@H]2O[C@@H]3OC(C)(C)O[C@@H]3[C@H]2OCc2ccccc2)[C@@H](C(=O)OCC)N[C@H]1c1cccc([N+](=O)[O-])c1` here?
Answer: The IC50 was 61 µM.

Question: What about the Ki [1] of the same compound?
Answer: The Ki was 33 µM.

Question: What about the inhibition (Rattus norvegicus) of the same compound?
Answer: Its inhibition is 82.7%.
